From ChEMBL document CHEMBL5505958, “Optimization of sequence and chiral content enhances therapeutic potential of tilapia piscidin peptides” (Eur J Med Chem, 2024)
Converted amounts (≈) assume the structure as drawn. The source made the active and inactive calls. No cut-off for these calls is given here.

Key:
Pseudomonas aeruginosa = experiment: Bactericidal activity against Pseudomonas aeruginosa 19660 assessed as inhibition of bacterial growth incubated for 16 to 20 hrs in presence of human serum; type: functional; conditions: time 16-20 hrs
Klebsiella pneumoniae [1] = experiment: Bactericidal activity against Klebsiella pneumoniae BAA 2473 assessed as inhibition of bacterial growth in presence of 0.1 microg/ml of proteinase K (reference value: 1.56 to 3.13 microM); type: functional
Klebsiella pneumoniae [2] = experiment: Bactericidal activity against Klebsiella pneumoniae TL 297 assessed as inhibition of bacterial growth incubated for 16 to 20 hrs in presence of human serum; type: functional; conditions: time 16-20 hrs
Escherichia coli [3] = experiment: Antibacterial activity against Escherichia coli 10675 assessed as inhibition of bacterial growth incubated for 16 to 20 hrs in presence of human serum; type: functional; conditions: time 16-20 hrs
Klebsiella pneumoniae [4] = experiment: Antibacterial activity against Klebsiella pneumoniae BAA 2473 assessed as inhibition of bacterial growth in presence of 0.1 microg/ml of pepsin (reference value: 1.56 to 3.13 microM); type: functional
Acinetobacter baumannii [5] = experiment: Antibacterial activity against Acinetobacter baumannii 10591 assessed as inhibition of bacterial growth incubated for 16 to 20 hrs in presence of human serum; type: functional; conditions: time 16-20 hrs
Enterococcus faecium [6] = experiment: Antibacterial activity against Enterococcus faecium 10067 assessed as inhibition of bacterial growth incubated for 16 to 20 hrs; type: functional; conditions: time 16-20 hrs
Salmonella typhimurium [7] = experiment: Antibacterial activity against Salmonella typhimurium DT104 assessed as inhibition of bacterial growth incubated for 16 to 20 hrs; type: functional, Salmonella enterica subsp. enterica serovar Typhimurium; conditions: Salmonella enterica, time 16-20 hrs
Salmonella typhimurium [8] = experiment: Bactericidal activity against Salmonella typhimurium DT104 assessed as inhibition of bacterial growth incubated for 16 to 20 hrs; type: functional, Salmonella enterica subsp. enterica serovar Typhimurium; conditions: Salmonella enterica, time 16-20 hrs
Klebsiella pneumoniae [9] = experiment: Antibacterial activity against Klebsiella pneumoniae BAA 2473 assessed as inhibition of bacterial growth in presence of 10 microg/ml of proteinase K (reference value: 1.56 to 3.13 microM); type: functional
Escherichia coli [10] = experiment: Antibacterial activity against Escherichia coli 10675 assessed as inhibition of bacterial growth incubated for 16 to 20 hrs; type: functional; conditions: time 16-20 hrs
Enterococcus faecium [11] = experiment: Bactericidal activity against Enterococcus faecium 10067 assessed as inhibition of bacterial growth incubated for 16 to 20 hrs; type: functional; conditions: time 16-20 hrs
Klebsiella pneumoniae [12] = experiment: Antibacterial activity against Klebsiella pneumoniae BAA 2473 assessed as inhibition of bacterial growth in presence of 0.1 microg/ml of chymotrypsin (reference value: 1.56 to 3.13 microM); type: functional
Klebsiella pneumoniae [13] = experiment: Antibacterial activity against Klebsiella pneumoniae BAA 2473 assessed as inhibition of bacterial growth in presence of 10 microg/ml of trypsin (reference value: 1.56 to 3.13 microM); type: functional
Enterococcus faecalis [14] = experiment: Bactericidal activity against Enterococcus faecalis 10066 assessed as inhibition of bacterial growth incubated for 16 to 20 hrs; type: functional; conditions: time 16-20 hrs
Vibrio vulnificus = experiment: Antibacterial activity against Vibrio vulnificus 204 assessed as inhibition of bacterial growth incubated for 16 to 20 hrs; type: functional; conditions: time 16-20 hrs
Klebsiella pneumoniae [15] = experiment: Antibacterial activity against Klebsiella pneumoniae BAA 2473 assessed as inhibition of bacterial growth in presence of 0.1 microg/ml of trypsin (reference value: 1.56 to 3.13 microM); type: functional
Klebsiella pneumoniae [16] = experiment: Bactericidal activity against Klebsiella pneumoniae BAA 2473 assessed as inhibition of bacterial growth in presence of 1 microg/ml of proteinase K (reference value: 1.56 to 3.13 microM); type: functional
Staphylococcus aureus = experiment: Bactericidal activity against Staphylococcus aureus 10780 assessed as inhibition of bacterial growth incubated for 16 to 20 hrs in presence of human serum; type: functional; conditions: time 16-20 hrs
Escherichia coli [17] = experiment: Bactericidal activity against Escherichia coli 10675 assessed as inhibition of bacterial growth incubated for 16 to 20 hrs; type: functional; conditions: time 16-20 hrs
Klebsiella oxytoca = experiment: Bactericidal activity against Klebsiella oxytoca 13985 assessed as inhibition of bacterial growth incubated for 16 to 20 hrs in presence of human serum; type: functional; conditions: time 16-20 hrs
Salmonella enterica = experiment: Antibacterial activity against Salmonella enterica 15455 assessed as inhibition of bacterial growth incubated for 16 to 20 hrs; type: functional; conditions: time 16-20 hrs
Klebsiella pneumoniae [18] = experiment: Induction of morphological changes in Klebsiella pneumoniae BAA 2473 assessed as membrane deformations with protruding granules at by transmission electron microscopy analysis; type: functional, organism-based
Klebsiella pneumoniae [19] = experiment: Bactericidal activity against Klebsiella pneumoniae BAA 2473 assessed as inhibition of bacterial growth in presence of 10 microg/ml of proteinase K (reference value: 1.56 to 3.13 microM); type: functional
Klebsiella pneumoniae [20] = experiment: Bactericidal activity against Klebsiella pneumoniae BAA 2473 assessed as inhibition of bacterial growth in presence of 0.1 microg/ml of chymotrypsin (reference value: 1.56 to 3.13 microM); type: functional
Salmonella typhimurium [21] = experiment: Antibacterial activity against Salmonella typhimurium DT104 assessed as inhibition of bacterial growth incubated for 16 to 20 hrs in presence of human serum; type: functional, Salmonella enterica subsp. enterica serovar Typhimurium; conditions: Salmonella enterica, time 16-20 hrs
Lipopolysaccharide (LPS) = experiment: Displacement of BODIPY-TR-cadaverine from Klebsiella pneumoniae BAA 2473 lipopolysaccharide (LPS) assessed as increase in fluorescence intensity at 3.125 uM by fluorescence spectrophotometric analysis; type: subcellular
Acinetobacter baumannii [22] = experiment: Antibacterial activity against Acinetobacter baumannii 10591 assessed as inhibition of bacterial growth incubated for 16 to 20 hrs; type: functional; conditions: time 16-20 hrs
Klebsiella pneumoniae [23] = experiment: Antibacterial activity against Klebsiella pneumoniae BAA 2473 assessed as inhibition of bacterial growth incubated for 16 to 20 hrs; type: functional; conditions: time 16-20 hrs
Klebsiella pneumoniae [24] = experiment: Antibacterial activity against Klebsiella pneumoniae BAA 2473 assessed as inhibition of bacterial growth in presence of 10 microg/ml of pepsin (reference value: 1.56 to 3.13 microM); type: functional
Rhizopus arrhizus [25] = experiment: Antifungal activity against Rhizopus oryzae 34550 assessed as inhibition of fungal growth incubated for 16 to 20 hrs in presence of human serum; type: functional; conditions: time 16-20 hrs
Cell membrane = experiment: Induction of outer cell membrane permeabilization in Klebsiella pneumoniae BAA 2473 assessed as increase in fluorescence intensity by NPN uptake assay; type: cell membranes
Rhizopus arrhizus [26] = experiment: Fungicidal activity against Rhizopus oryzae 34550 assessed as inhibition of fungal growth incubated for 72 hrs; type: functional
Klebsiella pneumoniae [27] = experiment: Bactericidal activity against Klebsiella pneumoniae BAA 2473 assessed as inhibition of bacterial growth in presence of 0.1 microg/ml of pepsin (reference value: 1.56 to 3.13 microM); type: functional
Klebsiella pneumoniae [28] = experiment: Antibacterial activity against Klebsiella pneumoniae BAA 2473 assessed as inhibition of bacterial growth in presence of 1 microg/ml of proteinase K (reference value: 1.56 to 3.13 microM); type: functional
Enterococcus faecalis [29] = experiment: Antibacterial activity against Enterococcus faecalis 10066 assessed as inhibition of bacterial growth incubated for 16 to 20 hrs; type: functional; conditions: time 16-20 hrs
Klebsiella pneumoniae [30] = experiment: Bactericidal activity against Klebsiella pneumoniae 10692 assessed as inhibition of bacterial growth incubated for 16 to 20 hrs; type: functional; conditions: time 16-20 hrs
Klebsiella pneumoniae [31] = experiment: Antibacterial activity against Klebsiella pneumoniae BAA 2473 assessed as inhibition of bacterial growth in presence of 1 microg/ml of chymotrypsin (reference value: 1.56 to 3.13 microM); type: functional
Klebsiella aerogenes = experiment: Antibacterial activity against Enterobacter aerogenes 15630 assessed as inhibition of bacterial growth incubated for 16 to 20 hrs; type: functional; conditions: time 16-20 hrs
Klebsiella pneumoniae [32] = experiment: Bactericidal activity against Klebsiella pneumoniae BAA 2473 assessed as inhibition of bacterial growth in presence of 1 microg/ml of chymotrypsin (reference value: 1.56 to 3.13 microM); type: functional

CC(C)C[C@H](NC(=O)[C@@H](C)NC(=O)[C@@H](CCCCN)NC(=O)[C@H](CC(C)C)NC(=O)[C@@H](CC(C)C)NC(=O)[C@@H](CCCCN)NC(=O)[C@H](CCCCN)NC(=O)[C@@H](CC(C)C)NC(=O)[C@H](N)Cc1ccccc1)C(=O)N[C@H](Cc1ccccc1)C(=O)N[C@H](CO)C(=O)N[C@@H](C)C(=O)N1CCC[C@@H]1C(=O)N[C@H](CCCCN)C(=O)N[C@@H](C)C(=O)N[C@H](CC(C)C)C(=O)N[C@H](CCCCN)C(=O)N[C@@H](CCCNC(=N)N)C(=O)N[C@H](CC(C)C)C(=O)N[C@H](CC(C)C)C(=O)N[C@@H](CCCNC(=N)N)C(=O)N[C@H](CCCNC(=N)N)C(=O)N[C@H](CCCNC(=N)N)C(=O)N[C@@H](CCCNC(=N)N)C(=O)N[C@@H](CCCNC(=N)N)C(=O)O
MBC (Pseudomonas aeruginosa): 3.13 µM | MBC (Klebsiella pneumoniae [1]): 1.56 µM | MBC (Klebsiella pneumoniae [2]): 1.56 µM | MIC (Escherichia coli [3]): 0.78 µM | MIC (Klebsiella pneumoniae [4]): 0.78 µM | MIC (Acinetobacter baumannii [5]): 1.56 µM | MIC (Enterococcus faecium [6]): 3.13 µM (≈ 9.64 µg/mL) | MIC (Salmonella typhimurium [7]): 3.13 µM (≈ 9.64 µg/mL) | MBC (Salmonella typhimurium [8]): 3.13 µM (≈ 9.64 µg/mL) | MIC (Klebsiella pneumoniae [9]): 0.78 µM | MIC (Escherichia coli [10]): 1.56 µM (≈ 4.8 µg/mL) | MBC (Enterococcus faecium [11]): 12.5 µM (≈ 38.5 µg/mL) | MIC (Klebsiella pneumoniae [12]): 0.78 µM | MIC (Klebsiella pneumoniae [13]): 0.78 µM | MBC (Enterococcus faecalis [14]): 12.5 µM (≈ 38.5 µg/mL) | MIC (Vibrio vulnificus): 6.25 µM (≈ 19.2 µg/mL) | MIC (Klebsiella pneumoniae [15]): 0.78 µM | MBC (Klebsiella pneumoniae [16]): 0.78 µM | MBC (Staphylococcus aureus): > 100 µM | MBC (Escherichia coli [17]): 1.56 µM (≈ 4.8 µg/mL) | MBC (Klebsiella oxytoca): 6.25 µM | MIC (Salmonella enterica): 3.13 µM (≈ 9.64 µg/mL) | Activity (Klebsiella pneumoniae [18]): Active | MBC (Klebsiella pneumoniae [19]): 1.56 µM | MBC (Klebsiella pneumoniae [20]): 0.78 µM | MIC (Salmonella typhimurium [21]): 6.25 µM | Activity (Lipopolysaccharide (LPS)): 100% | MIC (Acinetobacter baumannii [22]): 3.13 µM (≈ 9.64 µg/mL) | MIC (Klebsiella pneumoniae [23]): 0.78 µM (≈ 2.4 µg/mL) | MIC (Klebsiella pneumoniae [24]): 0.78 µM | MIC (Rhizopus arrhizus [25]): 6.25 µM | Activity (Cell membrane): Active | MFC (Rhizopus arrhizus [26]): 1.56 µM (≈ 4.8 µg/mL) | MBC (Klebsiella pneumoniae [27]): 1.56 µM | MIC (Klebsiella pneumoniae [28]): 0.78 µM | MIC (Enterococcus faecalis [29]): > 25 µM | MBC (Klebsiella pneumoniae [30]): 25 µM (≈ 77 µg/mL) | MIC (Klebsiella pneumoniae [31]): 0.78 µM | MIC (Klebsiella aerogenes): 3.13 µM (≈ 9.64 µg/mL) | MBC (Klebsiella pneumoniae [32]): 0.78 µM
